Measurements reported in ChEMBL document CHEMBL1221220, “Transport and signaling via the amino acid binding site of the yeast Gap1 amino acid transceptor” (Nat Chem Biol, 2009).
Residue numbers refer to the chain shown, from its start. Activity calls are given as the source filed them. The rule behind the calls is not given here.

Experiments:
[1] = tested on: General amino-acid permease GAP1 (Saccharomyces cerevisiae), P19145 [S388C]; test: Induction of yeast Gap1 S388C mutant-mediated trehalose activation at 2 mM in presence of 10 mM MTSEA treated before compound addition
Chain of General amino-acid permease GAP1 (Saccharomyces cerevisiae), P19145 [S388C] (P19145 whole entry S388C): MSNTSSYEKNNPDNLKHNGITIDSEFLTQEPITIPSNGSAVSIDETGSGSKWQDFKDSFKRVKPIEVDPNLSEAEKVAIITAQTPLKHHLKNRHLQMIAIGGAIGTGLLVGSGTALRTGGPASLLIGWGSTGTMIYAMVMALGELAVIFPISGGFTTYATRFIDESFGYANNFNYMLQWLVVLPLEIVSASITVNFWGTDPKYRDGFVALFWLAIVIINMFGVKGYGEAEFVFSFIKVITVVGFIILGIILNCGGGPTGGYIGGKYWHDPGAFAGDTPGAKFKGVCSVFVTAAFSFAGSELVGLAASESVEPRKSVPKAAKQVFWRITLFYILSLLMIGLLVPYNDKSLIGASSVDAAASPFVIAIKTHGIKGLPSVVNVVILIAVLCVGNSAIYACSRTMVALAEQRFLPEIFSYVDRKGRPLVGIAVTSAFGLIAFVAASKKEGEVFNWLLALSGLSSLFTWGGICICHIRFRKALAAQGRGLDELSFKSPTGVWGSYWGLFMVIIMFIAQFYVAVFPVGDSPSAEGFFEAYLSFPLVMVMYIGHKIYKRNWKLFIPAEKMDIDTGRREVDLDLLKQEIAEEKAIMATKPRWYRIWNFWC

[2] = tested on: General amino-acid permease GAP1 (Saccharomyces cerevisiae), P19145 [I394C]; test: Inhibition of yeast Gap1 I394C mutant-mediated amino acid uptake at 10 mM
Chain of General amino-acid permease GAP1 (Saccharomyces cerevisiae), P19145 [I394C] (P19145 whole entry I394C): as the sequence (P19145 whole entry S388C) above, with C388S, I394C counted along it

[3] = tested on: T1, General amino-acid permease GAP1 (Saccharomyces cerevisiae), P19145 [C397C]; test: Induction of yeast Gap1 C397C mutant-mediated amino acid uptake at 2 mM in presence of 10 mM MTSEA treated before compound addition
T1 sequence (whole entry): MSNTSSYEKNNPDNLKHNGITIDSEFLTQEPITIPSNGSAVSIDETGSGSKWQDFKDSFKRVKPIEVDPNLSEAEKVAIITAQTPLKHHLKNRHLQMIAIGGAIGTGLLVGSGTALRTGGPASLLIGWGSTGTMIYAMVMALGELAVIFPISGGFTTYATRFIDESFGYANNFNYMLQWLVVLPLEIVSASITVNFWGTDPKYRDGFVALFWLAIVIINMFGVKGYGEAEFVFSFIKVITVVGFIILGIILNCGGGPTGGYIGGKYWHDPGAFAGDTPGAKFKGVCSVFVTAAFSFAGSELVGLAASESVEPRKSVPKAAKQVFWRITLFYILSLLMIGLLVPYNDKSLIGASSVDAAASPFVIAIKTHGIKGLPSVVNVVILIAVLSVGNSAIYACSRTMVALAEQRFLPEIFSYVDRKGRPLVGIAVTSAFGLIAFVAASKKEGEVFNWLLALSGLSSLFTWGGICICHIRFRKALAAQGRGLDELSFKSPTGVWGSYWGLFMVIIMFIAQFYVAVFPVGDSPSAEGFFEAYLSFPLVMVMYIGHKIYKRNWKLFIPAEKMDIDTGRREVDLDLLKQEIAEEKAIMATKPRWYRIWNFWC

[4] = tested on: T2, General amino-acid permease GAP1 (Saccharomyces cerevisiae), P19145 [G390C]; test: Activation of yeast Gap1 G390C mutant-mediated amino acid uptake at 10 mM
T2 sequence (whole entry): T1 sequence (whole entry) with G390C

[5] = tested on: T2, General amino-acid permease GAP1 (Saccharomyces cerevisiae), P19145 [G390C]; test: Induction of yeast Gap1 G390C mutant-mediated trehalose activation at 2 mM in presence of 10 mM MTSEA treated before compound addition
[6] = tested on: T3, General amino-acid permease GAP1 (Saccharomyces cerevisiae), P19145 [M401C]; test: Induction of yeast Gap1 M401C mutant-mediated amino acid uptake at 2 mM in presence of 10 mM MTSEA treated before compound addition
T3 sequence (whole entry): T1 sequence (whole entry) with M401C

[7] = tested on: T4, General amino-acid permease GAP1 (Saccharomyces cerevisiae), P19145 [S398C]; test: Induction of yeast Gap1 S398C mutant-mediated trehalose activation at 10 mM
T4 sequence (whole entry): T1 sequence (whole entry) with S398C

- inhibition [1]: inactive
- inhibition [2]: Active
- Activity [3]: Active
- Activity [4]: inactive
- inhibition [5]: Active
- Activity [6]: Active
- Activity [7]: inactive
Compound: NC(=O)NCCC[C@H](N)C(=O)O
